Laboratory results: PMC6278664, “Highly Cancer Selective Antiproliferative Activity of Natural Prenylated Flavonoids” (Molecules, 2018)

Tests used:
[1] = tested on: A2780 human ovarian cancer cell line; test: SRB antiproliferative assay, A2780; type: cell-based
Description: (§1) We determined the effect of various structural factors in the substrates on the antiproliferative activity against those selected to the study cell lines: the location and/or the presence of the prenyl group, the chalcone/flavanone skeleton and the presence of an O-methyl group at C-5 in flavanones. Flavonoids presented in Figure 1 were tested for the antiproliferative activity towards eight cancer cell lines including estrogen-dependent (MCF7 and T-47D) and two normal ones (HLMEC and MCF 10A). The in vitro antiproliferative activity was measured using SRB assay. The results are presented in Figure 2 (and in the supplement in Table S1). The antiproliferative activity was measured separately for each of the experiments and given as the average IC50 (the concentration of tested compound which inhibits 50% of the cells population). Cisplatin (CP), a common anticancer drug, was used as a positive control.
(§2) The following established in vitro cell lines were applied: MCF7, T-47D, MDA-MB-231 (human breast cancer cell line), A2780 (human ovarian cancer cell line), A2780cis (human cisplatin-resistant ovarian cancer cell line), PC-3 and DU 145 (human prostate cancer cell lines), HT-29 (human colon cancer cell line), HLMEC (human lung microvascular endothelial cell line), and MCF 10A (human mammary epithelial cells line).
(§3) The cell lines: MDA-MB-231, HT-29, PC-3, DU 145, and MCF 10A were obtained from the American Type Culture Collection (Rockville, MD, USA), MCF7, T-47D, A2780, A2780cis from the European Collection Cell Cultures (Sigma-Aldrich, Chemie GmbH, Steinheim, Germany), while the HLMEC cell line was obtained by M. Paprocka from the institute. All cell lines are being maintained in the Institute of Immunology and Experimental Therapy (Wrocław, Poland). DU 145 and MCF7 cells were cultured in Eagle medium (supplemented with 4mM L-glutamine, 10% fetal bovine serum, 1 mM sodium pyruvate for DU 145 cells or 2 mM L-glutamine, 1% mem non-essential amino acid solution and 8 µg/mL insulin and 10% fetal bovine serum for MCF7). […] HT-29 and T-47D cell lines were cultured in RPMI 1640 + OPTI-MEM medium supplemented with 2 mM L-glutamine, 5% fetal bovine serum and 8 µg/mL of insulin (T-47D) or 1 mM sodium pyruvate (HT-29). MDA-MB-231, PC-3 and HLMEC cell lines were cultured in RPMI 1640 medium supplemented with 2 mM L-glutamine and 10% fetal bovine serum. Medium for MCF 10A cell line consisted of F-12 nutrient mixture supplemented with cholera toxin (0.05 µg/mL), insulin (10 µg/mL), hydrocortisone (0.5 µg/mL), 5% horse serum, and EGFH (20 ng/mL). All the culture media contained antibiotics: 100 units/mL penicillin (Polfa Tarchomin SA, Warsaw, Poland), and 100 µg/mL streptomycin (Sigma-Aldrich, Chemie GmbH, Steinheim, Germany). All cell lines were grown at 37 °C with 5% CO2 humidified atmosphere.
(§4) Twenty-four hours before the incubation with the tested compounds, the cells were seeded in 96-plates (Sarstedt, Germany) at a density of 1 × 10^4 cells per well (0.75 × 10^4 per well for MCF7 and 1 × 10^3 per well for HLMEC) in 100 µL of a culture medium.
(§5) Each agent at each concentration (from 0.1 to 100 µg/mL) was tested in a single experiment, which was repeated four to five times. […] Cisplatin was used as a reference drug.
(§6) The results were calculated as the IC50 (inhibitory concentration 50%)—the concentration of the tested compound which inhibits 50% of the cells population. IC50 values were calculated for each experiment separately and mean values ± SD are presented in the Table S1 in the Supplementary Materials. Each compound at each concentration was tested in triplicate in a single experiment, which was repeated four to five times.
(§7) The cells were fixed in situ by gently adding cold 50% trichloroacetic acid (50 µL per well). The plates were incubated at 4 °C for 1h and then washed five times with tap water. […]

[2] = breast tissue study of Bolca and co-workers; cited from earlier work
[3] = tested on: HLMEC human lung microvascular endothelial cell line; test: SRB antiproliferative assay, HLMEC (normal); type: cell-based; details: Homo sapiens, Endothelial cell, 72 h, mean ± SD
[4] = tested on: MDA-MB-231 human breast cancer cell line; test: SRB antiproliferative assay, MDA-MB-231; type: cell-based
Description: as §1, §2, §3, §4, §5, §6, §7

human CYP1A1 = tested on: human CYP1A1; design: method as in PMID 10752639; details: cited from earlier work
[5] = tested on: HT-29 human colon cancer cell line; test: SRB antiproliferative assay, HT-29; type: cell-based
[6] = tested on: T-47D human breast cancer cell line; test: SRB antiproliferative assay, T-47D; type: cell-based
Description: as §1, §2, §3, §4, §5, §6, §7

human CYP1B1 = tested on: human CYP1B1; design: method as in PMID 10752639; details: cited from earlier work
[7] = tested on: MCF7 human breast cancer cell line; test: SRB antiproliferative assay, MCF7; type: cell-based
Description: as §1, §2, §3, §4, §5, §6, §7

[8] = tested on: PC-3 human prostate cancer cell line; test: SRB antiproliferative assay, PC-3; type: cell-based
Description: as §1, §2, §3, §4, §5, §6, §7

[9] = tested on: MCF 10A human mammary epithelial cells line; test: SRB antiproliferative assay, MCF 10A (normal); type: cell-based; details: Homo sapiens, MCF-10A, 72 h, mean ± SD, read-out: Normal cell line, IC50, MCF-10A
Description: as §1, §2, §3, §4, §5, §6, §7

[10] = tested on: DU 145 human prostate cancer cell line; test: SRB antiproliferative assay, DU 145; type: cell-based
Description: as §1, §2, §3, §4, §5, §6, §7

[11] = tested on: A2780cis human cisplatin-resistant ovarian cancer cell line; test: SRB antiproliferative assay, A2780cis; type: cell-based
Description: as §1, §2, §3, §4, §5, §6, §7

PC-3 cell line = tested on: PC-3 cell line; design: method as in PMID 23434138; details: earlier study; cited from earlier work

COc1cc(O)c(CC=C(C)C)c(O)c1C(=O)/C=C/c1ccc(O)cc1 [XN, 3′-(3,3-dimethylallyl)-4,2′,4′-trihydroxy-6′-methoxychalcone]
IC50 ([1]; Homo sapiens, A2780, SRB, 72 h, mean ± SD, read-out: Cancer cell line, IC50, A-2780): 2.06 ± 1.03 µM | Selectivity index SIA, A-2780 ([1]; IC50 HLMEC / IC50 A-2780): 4.65 | Selectivity index SIB, A-2780 ([1]; IC50 MCF-10A / IC50 A-2780): 27.16 | SIA against A2780, times higher than the reference ([1]; ratio of SIA to SIA of cisplatin): 5-8 times | Glucuronidation [2]: > 90% | IC50 [3]: 9.57 ± 4.23 µM | IC50 ([4]; Homo sapiens, MDA-MB-231, SRB, 72 h, mean ± SD): 8.46 ± 3.19 µM | Selectivity index SIA, MDA-MB-231 ([4]; IC50 HLMEC / IC50 MDA-MB-231): 1.13 | Selectivity index SIB, MDA-MB-231 ([4]; IC50 MCF-10A / IC50 MDA-MB-231): 6.61 | Inhibition of EROD activity of CYP1A1 (human CYP1A1): almost completely inhibited | IC50 ([5]; Homo sapiens, HT-29, SRB, 72 h, mean ± SD): 9.42 ± 0.25 µM | Selectivity index SIA, HT-29 ([5]; IC50 HLMEC / IC50 HT-29): 1.02 | Selectivity index SIB, HT-29 ([5]; IC50 MCF-10A / IC50 HT-29): 5.94 | IC50 ([6]; Homo sapiens, T47D, SRB, 72 h, mean ± SD): 7.99 ± 2.77 µM | Selectivity index SIA, T-47D ([6]; IC50 HLMEC / IC50 T-47D): 1.20 | Selectivity index SIB, T-47D ([6]; IC50 MCF-10A / IC50 T-47D): 7.00 | Inhibition of EROD activity of CYP1B1 (human CYP1B1): almost completely inhibited | IC50 ([7]; Homo sapiens, MCF7, 72 h, SRB, 72 h, mean ± SD): 10.8 ± 0.32 µM | Selectivity index SIA, MCF-7 ([7]; IC50 HLMEC / IC50 MCF-7): 0.88 | Selectivity index SIB, MCF-7 ([7]; IC50 MCF-10A / IC50 MCF-7): 5.16 | IC50 ([8]; Homo sapiens, SRB, 72 h, mean ± SD): 8.61 ± 1.11 µM | Selectivity index SIA, PC-3 ([8]; IC50 HLMEC / IC50 PC-3): 1.11 | Selectivity index SIB, PC-3 ([8]; IC50 MCF-10A / IC50 PC-3): 6.50 | IC50 [9]: 56 ± 27.3 µM | IC50 ([10]; Homo sapiens, DU-145, SRB, 72 h, mean ± SD): 6.49 ± 2.14 µM | Selectivity index SIA, Du-145 ([10]; IC50 HLMEC / IC50 Du-145): 1.47 | Selectivity index SIB, Du-145 ([10]; IC50 MCF-10A / IC50 Du-145): 8.62 | IC50 ([11]; Homo sapiens, A2780cis, SRB, 72 h, mean ± SD, read-out: Cancer cell line, IC50, A-2780cis): 8.21 ± 0.83 µM | Selectivity index SIA, A-2780cis ([11]; IC50 HLMEC / IC50 A-2780cis): 1.17 | Selectivity index SIB, A-2780cis ([11]; IC50 MCF-10A / IC50 A-2780cis): 6.81

COc1cc(O)c(CCC(C)(C)O)c(O)c1C(=O)/C=C/c1ccc(O)cc1 [xanthohumol H, 3′-[3′-hydroxy-3”methylbutyl]-4,2′,4′-trihydroxy-6′-methoxychalcone]
Antiproliferative activity towards PC-3 cell line (PC-3 cell line): inactive
